From paper PMC12977544, “Phenotypic high-throughput screening identifies modulators of gut microbial choline metabolism” (mBio, 2026)
Converted amounts (≈) assume the structure as drawn.

Assays:
TMAO production in vivo = system: TMAO production in vivo; set-up: method as in PMID 30082863; settings: cited from earlier work
[1] = system: panel of commensal bacterial strains; experiment: MIC against panel of nine gut commensal bacteria; settings: of 9 bacterial strains tested
[2] = system: Eubacterium rectale ATCC 33656; experiment: MIC in MEGA medium; type: cell-based; settings: anaerobic, 37°C, 24 h, up to 200 µM; read-out: MIC in MEGA medium, E. rectale
Protocol: (§1) For TMA inhibition assays, E. coli and P. mirabilis were grown in NCE medium supplemented with 20 mM choline chloride, A. hydrogenalis was grown in MEGA medium supplemented with 3 mM choline chloride, and C. sporogenes was grown in BHI medium supplemented with 20 mM of choline chloride to induce expression of the cut gene cluster. For MIC assays, all bacteria strains were grown in MEGA medium.

[3] = system: Bacteroides thetaiotaomicron VPI-5482; experiment: MIC in MEGA medium; type: cell-based; settings: anaerobic, 37°C, 24 h, up to 200 µM; read-out: MIC in MEGA medium, B. thetaiotaomicron
Protocol: as §1

[4] = system: Clostridium sporogenes ATCC 15579; experiment: MIC in MEGA medium; type: cell-based; settings: anaerobic, 37°C, 24 h, up to 200 µM
Protocol: as §1

[5] = system: Proteus mirabilis ATCC 29906; experiment: MIC in MEGA medium; type: cell-based; settings: anaerobic, 37°C, 24 h, up to 200 µM; read-out: MIC in MEGA medium, P. mirabilis
Protocol: as §1

[6] = system: Collinsella aerofaciens ATCC 25986; experiment: MIC in MEGA medium; type: cell-based; settings: anaerobic, 37°C, 24 h, up to 200 µM
Protocol: as §1

[7] = system: Bacteroides ovatus ATCC 8483; experiment: MIC in MEGA medium; type: cell-based; settings: anaerobic, 37°C, 24 h, up to 200 µM; read-out: MIC in MEGA medium, B. ovatus
Protocol: as §1

[8] = system: Bacteroides caccae ATCC 43185; experiment: MIC in MEGA medium; type: cell-based; settings: anaerobic, 37°C, 24 h, up to 200 µM; read-out: MIC in MEGA medium, B. caccae
Protocol: as §1

[9] = system: Anaerococcus hydrogenalis DSM 7454; experiment: MIC in MEGA medium; type: cell-based; settings: anaerobic, 37°C, 24 h, up to 200 µM
Protocol: as §1

[10] = system: Clostridium sporogenes ATCC 15579; experiment: TMA inhibition in bacterial whole cells (LC–MS/MS of d9-TMA from d9-choline); type: cell-based; settings: 1 mM d9-choline in PBS, 75 min, 37°C, anaerobic
Protocol: as §1
(§2) Compounds were stored as 10 mM DMSO stocks at –20°C and diluted in DMSO to prepare varying concentrations of inhibitors for testing. Bacteria were grown anaerobically overnight in media supplemented with choline as described above. Cells were pelleted and resuspended in PBS, and d9-choline chloride was added to a final concentration of 1 mM. The final OD600 of the PBS cell resuspensions is as follows: 0.4 (E. coli), 0.15–0.2 (P. mirabilis), 0.2 (C. sporogenes), and 0.4 (A. hydrogenalis). The resuspended cells were added to 96-well plates containing inhibitors (final concentration of 1% DMSO, with final inhibitor concentrations ranging between 0 and 325 µM). The plates were sealed and incubated for 75 min (or 90 min for P. mirabilis) at 37°C. Following incubation, the plates were removed from the anaerobic chamber and analyzed immediately or kept at –20°C until LC–MS/MS analysis. Each inhibitor concentration was tested in triplicate. EC50 values were calculated with GraphPad Prism by fitting the log(inhibitor) vs response—Variable slope (four-parameter) model for non-linear regression.
(§3) Samples were kept frozen until analysis and kept cold on ice during handling due to the volatility of TMA. Bacterial cell resuspensions in PBS were diluted 100-fold in LCMS-grade acetonitrile with 0.1% formic acid to lyse cells, precipitate proteins, and extract metabolites. Samples were centrifuged at 4,000 rpm for 10 min at 4°C to pellet proteins. The supernatants were then further diluted 20-fold in LCMS-grade acetonitrile with 0.1% formic acid, and the resulting solution was analyzed by LC–MS/MS.
(§4) LC–MS/MS analysis was performed on an Agilent 1290/6470 Triple Quadrupole LC–MS instrument (Agilent Technologies) using electrospray ionization. The mass spectrometer was operated in multiple reaction monitoring (MRM) mode with positive ionization monitoring. The precursor–product ion pairs used in MRM mode were as follows: m/z 69.1m/z → 49.1 (d9-TMA) and m/z 113.2 m/z → 69.1 (d9-choline). The capillary voltage was set to 4.0 kV, and the fragmentor voltage was set to 30 V (d9-TMA) and 115 V (d9-choline). The collision energy for the precursor–product ion pairs was set to 29 V (d9-TMA) and 21 V (d9-choline). MS^1 resolution was set to wide and MS^2 resolution to unit. The drying gas temperature was maintained at 250°C, with a flow rate of 11 L/min and a nebulizer pressure of 45 psi. The time filter width used was 0.07 min. The injection volume of all samples was 1 μL. Samples were injected onto InfinityLab Poroshell 120 (Agilent) HILIC columns (2.7 μm, 100 mm × 2.1 mm, 100 Å) preceded by InfinityLab Poroshell 120 HILIC guard columns (2.1 mm, 1.9µm UHPLC guard). The LC conditions on the binary pump were as follows: a gradient of 5–35% A increasing over 1.95 min (1.2 mL/min), a gradient of 35–5% A decreasing over 0.05 min (1.6 mL/min), and held at 5% A for 0.5 min (2 mL/min). […] Solvent A was 10 mM ammonium formate with 0.1% formic acid, and solvent B was acetonitrile with 0.1% formic acid. Data analysis was performed with Mass Hunter Workstation Data Acquisition and Qualitative Analysis software (Agilent Technologies).

E. coli MS 200-1 [11] = experiment: MIC in MEGA medium; type: cell-based, Escherichia coli MS 200-1; settings: anaerobic, 37°C, 24 h, up to 200 µM
Protocol: as §1

E. coli MS 200-1 [12] = experiment: TMA inhibition in bacterial whole cells (LC–MS/MS of d9-TMA from d9-choline); type: cell-based, Escherichia coli MS 200-1; settings: 1 mM d9-choline in PBS, 75 min, 37°C, anaerobic
Protocol: as §1, §2, §3, §4

[13] = cited from earlier work
[14] = system: Proteus mirabilis lysates; set-up: method as in PMID 30082863; settings: read-out: IC50 against Proteus mirabilis lysates; cited from earlier work
[15] = system: high affinity choline transporter (HAChT), choline transport in rat synaptosomes; set-up: method as in PMID 2066974; settings: cited from earlier work
choline transporters = system: choline transporters; set-up: method as in PMID 33271015; settings: read-out: IC50 of choline transport in human cells that overexpress choline transporters; cited from earlier work
[16] = system: Hungatella hathewayi cultures; set-up: method as in PMID 31059309; settings: cited from earlier work
[17] = system: cut gene cluster expression in E. coli MS 200-1; experiment: Transcription of the cut gene cluster after choline induction (Nanostring nCounter); settings: 10 µM, NCE glycerol, 1 mM choline induction, 1.5 h
E. coli MS 200-1 [18] = experiment: Growth inhibition of E. coli cultures in choline- and glycerol-containing minimal media; type: cell-based, Escherichia coli MS 200-1
Protocol: To validate the potential hits from the HTS, we tested the 178 compounds for inhibition of growth of E. coli MS 200-1 in glycerol minimal media at 30 µg/mL, following up with those without activity. […]. We then determined EC50 values for inhibition of TMA production from choline by bacterial cultures incubated with [trimethyl-d9]choline in phosphate-buffered saline. Of the 178 compounds tested in both growth and TMA inhibition assays, 20 inhibited TMA generation by E. coli MS 200-1 without growth-inhibitory effects in glycerol minimal medium.
NCE media was adapted based on the “no carbon E” media as previously described ([14]), and contains 29 mM potassium phosphate monobasic, 29 mM potassium phosphate dibasic, 17 mM ammonium sodium phosphate dibasic, 40 mM sodium fumarate dibasic, 0.1% (wt/vol) casamino acids, and either 20 mM choline chloride or 3 g/L glycerol. This mixture was supplemented with 1 mM magnesium sulfate, 1% ATCC vitamin supplement, and 1% ATCC trace mineral supplement.

[19] = biological target: T1, purified CutC (choline trimethylamine-lyase) (Oleidesulfovibrio alaskensis, UniProt Q30W70); experiment: In vitro CutC activity assay coupled to YADH/NADH (absorbance 340 nm); type: biochemical, Desulfovibrio desulfuricans G20; settings: 5 nM CutC, 200 µM choline, 20°C, anaerobic
T1 construct: made in house
Protocol: To investigate if our compounds were inhibiting CutC directly, we tested their activity toward the purified enzyme. The activity of CutC was determined using a coupled enzyme assay, where the acetaldehyde product from the cleavage of choline to TMA is reduced to ethanol by yeast alcohol dehydrogenase (YADH) using nicotinamide adenine dinucleotide (NADH) as a cofactor. The consumption of NADH results in a change in absorption at 340 nm, and this rate of change of absorption was used to calculate the initial rates of reaction of CutC in the presence of varying concentrations of inhibitors ([14], [65]).
CutC and CutD enzymes from Desulfovibrio desulfuricans G20 were purified, CutC was activated by incubation with CutD, and the amount of glycyl radical installation was quantified as previously described ([15]). The IC50 of compounds was determined in an in vitro CutC activity assay, where CutC activity is coupled to the NADH-dependent enzymatic reduction of acetaldehyde by YADH ([15]). Briefly, assays were conducted in an anaerobic chamber (MBraun) under N2 atmosphere at 20°C. In 50 mM potassium phosphate buffer (pH 8.0, 50 mM KCl), 40 µM of CutD and 150 µM of sodium dithionite were incubated for 20 min before the addition of 200 µM of SAM and 20 µM of CutC monomer. The mixture was incubated for 1 h to activate the glycyl radical enzyme, after which the activated CutC mixture was diluted […] in 50 mM potassium phosphate buffer (pH 8.0, 50 mM KCl). A master mix containing 200 µM NADH, 0.4 µM YADH (Sigma), and the diluted CutC mixture (5 nM final concentration in assay) was prepared and aliquoted into 96-well plates (180 µL per well). Ten microliters of inhibitor or DMSO vehicle was added, followed by 10 µL of aqueous choline chloride solution (final concentration 200 µM). Absorbance was measured at 340 nm immediately after addition of all assay components, with measurements taken every 20 s for 10 min. Initial rates were calculated from absorbance measurements and fitted to Michaelis–Menten equation using nonlinear regression in GraphPad Prism 10 (v. 10.4.0). Background activity was subtracted using no substrate controls, and initial rates for each inhibitor concentration were normalized to no inhibitor controls. IC50 values were obtained by plotting normalized activity values against the logarithm of inhibitor concentration and fitting to a nonlinear regression model in GraphPad Prism 10 (v. 10.4.0).

[20] = system: choline transport into ∆cutC E. coli MS 200-1 cells; experiment: [14C]-choline uptake; type: cell-based, Escherichia coli MS 200-1 ∆cutC; settings: 10 µM
Protocol: The ∆cutC strain of E. coli was used in this assay to prevent the formation of volatile radioactive TMA. When cells were grown aerobically, incubation with compound 42 increased choline uptake by 15 times compared to vehicle treatment (Fig. S2B).
E. coli MS 200-1 ∆cutC was grown either aerobically or anaerobically in LB medium supplemented with 1 mM choline chloride. Cells were pelleted and resuspended in fresh PBS after overnight growth to OD600 of 1 and aliquoted into microcentrifuge tubes. […] 5 µM [^14C] choline was added to the cells and left to incubate for 15 mins aerobically. At the end of the incubation period, cells were washed with PBS three times by centrifugation at 3,000 × g for 5 min and resuspended in equal volume of PBS. The resulting cell resuspension in PBS was transferred to a scintillation vial, where 10 mL of liquid scintillation cocktail was added and mixed. Radioactivity was counted using a Beckman Coulter LS6000 liquid scintillation counter for 1 min per sample.

T1 sequence (Q30W70 53-846): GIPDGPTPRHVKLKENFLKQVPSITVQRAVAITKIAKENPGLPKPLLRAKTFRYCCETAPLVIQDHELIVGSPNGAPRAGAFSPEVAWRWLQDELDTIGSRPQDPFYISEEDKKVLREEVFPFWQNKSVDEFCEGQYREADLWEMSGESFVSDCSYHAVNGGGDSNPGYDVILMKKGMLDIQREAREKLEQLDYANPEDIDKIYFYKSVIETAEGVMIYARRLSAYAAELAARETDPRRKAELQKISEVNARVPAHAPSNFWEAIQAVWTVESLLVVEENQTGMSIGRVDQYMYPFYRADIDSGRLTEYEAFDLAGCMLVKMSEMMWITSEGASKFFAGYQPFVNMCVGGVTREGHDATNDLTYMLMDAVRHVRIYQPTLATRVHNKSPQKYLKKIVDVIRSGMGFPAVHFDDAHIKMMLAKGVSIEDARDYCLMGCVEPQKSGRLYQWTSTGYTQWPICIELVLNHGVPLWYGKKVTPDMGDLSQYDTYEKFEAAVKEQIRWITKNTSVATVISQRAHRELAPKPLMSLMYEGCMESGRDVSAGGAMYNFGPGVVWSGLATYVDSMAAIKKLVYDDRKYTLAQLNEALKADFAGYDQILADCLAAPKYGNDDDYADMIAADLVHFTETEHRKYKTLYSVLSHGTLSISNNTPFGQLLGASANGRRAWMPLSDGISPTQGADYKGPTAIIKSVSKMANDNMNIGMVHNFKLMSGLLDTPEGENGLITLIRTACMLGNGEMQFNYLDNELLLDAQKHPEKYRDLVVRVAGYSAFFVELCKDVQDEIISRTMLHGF

## C[N+](C)(CF)CCO [FMC, fluoromethylcholine]
TMAO production in vivo
  EC50 of inhibition of TMAO production in vivo: 3.4 mg/kg

## Cc1ccc(-c2cc(C(=O)NCCCN3CCC(C)CC3)c(C)n2Cc2ccccc2)cc1C [Compound 19]
[1]
  Bacterial strains with growth inhibited (MIC < 200 µM): five out of 9
[2]
  MIC: 25 µM (≈ 11.4 µg/mL)
[3]
  MIC: 50 µM (≈ 22.9 µg/mL)
[4]
  MIC: > 200 µM
[5]
  MIC: > 200 µM
[6]
  MIC: 6.25 µM (≈ 2.86 µg/mL)
[7]
  MIC: 25 µM (≈ 11.4 µg/mL)
[8]
  MIC: > 200 µM
[9]
  MIC: 25 µM (≈ 11.4 µg/mL)
[10]
  EC50: 4 µM
E. coli MS 200-1 [11]
  MIC: > 200 µM
E. coli MS 200-1 [12]
  EC50: 28 µM

## C[N+](C)(CI)CCO [IMC, Iodomethylcholine]
[13]; dosed at 100 mg/kg, after 24 h
  Concentration in mice cecum and colon samples: around 6 mM
[13]; mouse, in vivo
  Level of inhibitor and its metabolite iodomethylbetaine in serum: low micromolar levels
TMAO production in vivo
  EC50 of inhibition of TMAO production in vivo: 45 mg/kg
[14]
  IC50: 1.5 nM
[15]
  IC50: 490 nM

## C[N+](C)(CCO)CCCCCCOc1cccc(I)c1 [Compound 4]
Choline transporters
  IC50: 44 nM
[16]
  IC50: 15 µM

## Cc1ccc(-c2cc(C(=O)NCCCN3CCCCCC3)c(C)[nH]2)cc1C [Compound 42]
[17]
  Effect on cut gene cluster expression vs DMSO control: did not significantly change gene expression
E. coli MS 200-1 [18]; choline minimal medium, 7 h, 6: 125–500 µM, 42: 30–100 µM
  Inhibition of E. coli growth on choline: dose-dependent
E. coli MS 200-1 [18]; glycerol NCE minimal medium
  Effect on growth of E. coli MS 200-1 in glycerol medium: not observed in glycerol
[19]
  IC50: 24 µM
[20]; cells grown aerobically
  Increase of choline uptake compared to vehicle: 15 times
[20]; cells grown anaerobically
  Increase of choline uptake compared to vehicle: 1.2 times
